According to paper PMC10141580, “Cyclic Dichalcogenides Extend the Reach of Bioreductive Prodrugs to Harness Thiol/Disulfide Oxidoreductases: Applications to seco-Duocarmycins Targeting the Thioredoxin System” (ACS Central Science, 2023):
Several values for one entry are separate records, joined by “and”; a condition that tells them apart may be missing. Equal entries are not always repeated. Where two headings read alike, the source gives them in different places.

Tested on: NCI-60 standardized human tumor cell line panel
Assay: cells
Format: cell-based

## COc1cc2cc(C(=O)N3C[C@@H](CCl)c4c3cc(OC(=O)N(CCC(=O)N3CCN(C)CC3)C3CCCCC3)c3ccccc43)[nH]c2c(OC)c1OC [P-CC60-CBI-TMI]
  NCI-60 screening: Log(GI50): -5.81 and -5.62
786-0 (RE) cell line, log10 of GI50 in M
  NCI-60 screening: Log(GI50): -5.76
786-0 (RE) cell line, read-out: NCI-60 screening: Raw GI50
  GI50: 1700 nM
786-0, read-out: GI50
  GI50: 1700 nM
A498 (RE) cell line, log10 of GI50 in M
  NCI-60 screening: Log(GI50): -5.56
A498 (RE) cell line, read-out: NCI-60 screening: Raw GI50
  GI50: 2800 nM
A498, read-out: GI50
  GI50: 2800 nM
A549/ATCC, read-out: GI50
  GI50: 2000 nM
ACHN (RE) cell line, log10 of GI50 in M
  NCI-60 screening: Log(GI50): -6.31
ACHN, read-out: GI50
  GI50: 490 nM
BT-549, read-out: GI50
  GI50: 1600 nM
CAKI-1 (RE) cell line, log10 of GI50 in M
  NCI-60 screening: Log(GI50): -5.83
CAKI-1 (RE) cell line, read-out: NCI-60 screening: Raw GI50
  GI50: 1500 nM
CAKI-1, read-out: GI50
  GI50: 1500 nM
CCRF-CEM, read-out: GI50
  GI50: 990 nM
COLO 205, read-out: GI50
  GI50: 1400 nM
DU-145 (PR) cell line, log10 of GI50 in M
  NCI-60 screening: Log(GI50): -6.34
DU-145, read-out: GI50
  GI50: 460 nM
EKVX, read-out: GI50
  GI50: 1900 nM
HCC-2998, read-out: GI50
  GI50: 1500 nM
HCT-15, read-out: GI50
  GI50: 1700 nM
HCT-116, read-out: GI50
  GI50: 1500 nM
HL-60(TB), read-out: GI50
  GI50: 750 nM
HOP-62, read-out: GI50
  GI50: 590 nM
HOP-92, read-out: GI50
  GI50: 2500 nM
HT29, read-out: GI50
  GI50: 1500 nM
IGROV1 (OV) cell line, log10 of GI50 in M
  NCI-60 screening: Log(GI50): -5.64
IGROV1 (OV) cell line, read-out: NCI-60 screening: Raw GI50
  GI50: 2300 nM
IGROV1, read-out: GI50
  GI50: 2300 nM
K-562, read-out: GI50
  GI50: 680 nM
KM12, read-out: GI50
  GI50: 2100 nM
LOX IMVI, read-out: GI50
  GI50: 1100 nM
M14, read-out: GI50
  GI50: 1500 nM
MALME-3M, read-out: GI50
  GI50: 1600 nM
MCF7, read-out: GI50
  GI50: 320 nM
MDA-MB-435, read-out: GI50
  GI50: 1800 nM
MDA-MB-468, read-out: GI50
  GI50: 690 nM
MOLT-4, read-out: GI50
  GI50: 590 nM
NCI-60 vs ProliFiler, 19 overlapping cell lines
  GI50/IC50, mean: 4.6
NCI-H23, read-out: GI50
  GI50: 470 nM
NCI-H226, read-out: GI50
  GI50: 1400 nM
NCI-H460 (LC) cell line, log10 of GI50 in M
  NCI-60 screening: Log(GI50): -6.29
NCI-H460, read-out: GI50
  GI50: 510 nM
NCI-H522 (LC) cell line, log10 of GI50 in M
  NCI-60 screening: Log(GI50): -5.77
NCI-H522 (LC) cell line, read-out: NCI-60 screening: Raw GI50
  GI50: 1700 nM
NCI-H522, read-out: GI50
  GI50: 1700 nM
OVCAR-3 (OV) cell line, log10 of GI50 in M
  NCI-60 screening: Log(GI50): -5.68
OVCAR-3 (OV) cell line, read-out: NCI-60 screening: Raw GI50
  GI50: 2100 nM
OVCAR-3, read-out: GI50
  GI50: 2100 nM
OVCAR-4 (OV) cell line, log10 of GI50 in M
  NCI-60 screening: Log(GI50): -5.63
OVCAR-4 (OV) cell line, read-out: NCI-60 screening: Raw GI50
  GI50: 2300 nM
OVCAR-4, read-out: GI50
  GI50: 2300 nM
OVCAR-5 (OV) cell line, log10 of GI50 in M
  NCI-60 screening: Log(GI50): -5.29
OVCAR-5, read-out: GI50
  GI50: 5100 nM
OVCAR-8 (OV) cell line, log10 of GI50 in M
  NCI-60 screening: Log(GI50): -5.78
OVCAR-8 (OV) cell line, read-out: NCI-60 screening: Raw GI50
  GI50: 1700 nM
OVCAR-8, read-out: GI50
  GI50: 1700 nM
PC-3 (PR) cell line, log10 of GI50 in M
  NCI-60 screening: Log(GI50): -5.5
PC-3, read-out: GI50
  GI50: 3100 nM
RPMI-8226, read-out: GI50
  GI50: 1500 nM
RXF 393 (RE) cell line, log10 of GI50 in M
  NCI-60 screening: Log(GI50): -5.97
RXF 393 (RE) cell line, read-out: NCI-60 screening: Raw GI50
  GI50: 1100 nM
RXF 393, read-out: GI50
  GI50: 1100 nM
SF-268, read-out: GI50
  GI50: 1500 nM
SF-295, read-out: GI50
  GI50: 1500 nM
SF-539, read-out: GI50
  GI50: 1300 nM
SK-MEL-5, read-out: GI50
  GI50: 1600 nM
SK-MEL-28, read-out: GI50
  GI50: 3600 nM
SK-OV-3 (OV) cell line, log10 of GI50 in M
  NCI-60 screening: Log(GI50): -5.67
SK-OV-3 (OV) cell line, read-out: NCI-60 screening: Raw GI50
  GI50: 2200 nM
SK-OV-3, read-out: GI50
  GI50: 2200 nM
SN12C (RE) cell line, log10 of GI50 in M
  NCI-60 screening: Log(GI50): -5.92
SN12C, read-out: GI50
  GI50: 1200 nM
SNB-19, read-out: GI50
  GI50: 2200 nM
